Measurements reported in patent publication US20240158392A1 (Janssen Biotech, Inc., priority 2021, published 2024).

Columns and labels:
SIK2 [1] = biological target: T1, SIK2 (Homo sapiens, UniProt Q9H0K1); assay: SIK2 Enzymatic Assay Version 1 (ADP Glo); format: biochemical; settings: enzyme 0.6 nM, 160 μM ATP and 140 μM HDAC5tide (each 2× final concentration); 30 minutes pre-incubation, 4 hours; ADPGlo luminescence; read-out: SIK2 ADP Glo IC50 (μM) (Test Example 1)
Summary of the method: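 Kinase activity read as ADP production by ADP-Glo luminescence, all steps at room temperature. Compound and SIK2 (0.6 nM, a 2× concentration) were preincubated 30 min; ATP-only wells lacking peptide were the negative control; depletion 40 min, detection ≥30 min.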

SIK2 [2] = biological target: T1, SIK2; assay: SIK2 Enzymatic Assay High Version 2 (High ATP); format: biochemical
Summary of the method: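 At room temperature, enzyme (6 nM, 2× final) was preincubated with compound for 30 min, then 6 mM ATP and 400 μM HDAC5tide (both 2× final) were added for 2 h. ADP formed was measured by ADP-Glo Max (2 h reagent, 1 h detection) using luminescence.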

T1 sequence (Q9H0K1 whole entry, species assumed): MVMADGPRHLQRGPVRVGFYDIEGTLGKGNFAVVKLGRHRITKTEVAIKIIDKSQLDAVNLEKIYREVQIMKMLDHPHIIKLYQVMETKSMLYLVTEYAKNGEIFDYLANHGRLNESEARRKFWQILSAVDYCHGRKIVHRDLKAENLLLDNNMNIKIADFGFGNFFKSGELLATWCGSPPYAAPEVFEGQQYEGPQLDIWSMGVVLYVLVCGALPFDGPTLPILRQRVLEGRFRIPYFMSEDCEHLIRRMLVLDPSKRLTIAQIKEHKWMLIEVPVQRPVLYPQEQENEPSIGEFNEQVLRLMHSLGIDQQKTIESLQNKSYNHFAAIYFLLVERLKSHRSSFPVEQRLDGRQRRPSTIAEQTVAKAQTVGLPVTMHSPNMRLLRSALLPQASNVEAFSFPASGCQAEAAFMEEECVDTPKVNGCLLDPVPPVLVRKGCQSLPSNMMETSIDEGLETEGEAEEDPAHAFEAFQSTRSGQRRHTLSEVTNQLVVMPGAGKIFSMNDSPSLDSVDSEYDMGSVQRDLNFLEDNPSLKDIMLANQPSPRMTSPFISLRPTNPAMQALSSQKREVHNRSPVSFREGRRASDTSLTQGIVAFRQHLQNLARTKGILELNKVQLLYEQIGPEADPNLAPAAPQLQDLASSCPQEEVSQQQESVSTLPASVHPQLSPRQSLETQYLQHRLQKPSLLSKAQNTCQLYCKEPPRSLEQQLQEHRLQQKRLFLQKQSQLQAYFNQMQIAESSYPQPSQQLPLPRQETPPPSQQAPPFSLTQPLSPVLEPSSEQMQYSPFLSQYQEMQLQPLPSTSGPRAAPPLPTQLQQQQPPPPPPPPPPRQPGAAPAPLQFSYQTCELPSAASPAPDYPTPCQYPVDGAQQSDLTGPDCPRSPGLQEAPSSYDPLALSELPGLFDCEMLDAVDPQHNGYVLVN

| IC50 (SIK2 [1]) [µM] | IC50 (SIK2 [2]) [nM] | Compound |
| --- | --- | --- |
| 0.000381 | 7.74 | N#Cc1cc(-c2ccn3nc(NC(=O)C4CC4)cc3c2)c(O[C@H]2CCN(CC(F)(F)F)C2)cn1 [Example 5, N-[5-[2-cyano-5-[(3S)-1-(2,2,2-trifluoroethyl)pyrrolidin-3-yl]oxy-4-pyridyl]pyrazolo[1,5-a]pyridin-2-yl]cyclopropanecarboxamide] |
| 0.00149 | 11.2 | N#Cc1cc(-c2ccn3nc(NC(=O)C4CC4)cc3c2)c(O[C@H]2CCNC2)cn1 [Example 6, (S)—N-(5-(2-cyano-5-(pyrrolidin-3-yloxy)pyridin-4-yl)pyrazolo[1,5-a]pyridin-2-yl)cyclopropanecarboxamide] |
| 0.000725 | 29.9 | N#Cc1cc(-c2ccn3nc(NC(=O)C4CC4)cc3c2)c(O[C@H]2CCN(C3CC3)C2)cn1 [Example 7, N-[5-[2-cyano-5-[(3S)-1-cyclopropylpyrrolidin-3-yl]oxy-4-pyridyl]pyrazolo[1,5-a]pyridin-2-yl]cyclopropanecarboxamide] |
| 0.204 | 4870 | CN1CCC(Oc2cnc(C#N)cc2-c2ccn3nc(NC(=O)C4CC4)cc3c2)(C(F)(F)F)CC1 [Example 10, N-[5-[2-cyano-5-[[1-methyl-4-(trifluoromethyl)-4-piperidyl]oxy]-4-pyridyl]pyrazolo[1,5-a]pyridin-2-yl]cyclopropanecarboxamide] |
| 0.0014 | 31.6 | CN1CC[C@@H](Oc2cnc(C#N)cc2-c2ccn3nc(NC(=O)C4CC4)cc3c2)C(F)(F)C1 [Example 11, N-[5-[2-cyano-5-[[(4R)-3,3-difluoro-1-methyl-4-piperidyl]oxy]-4-pyridyl]pyrazolo[1,5-a]pyridin-2-yl]cyclopropanecarboxamide] |
| 0.0208 | 305 | CN1C[C@H]2C[C@@H]1C[C@H]2Oc1cnc(C#N)cc1-c1ccn2nc(NC(=O)C3CC3)cc2c1 [Example 13, N-[5-[2-cyano-5-[[(1R,4R,5R)-2-methyl-2-azabicyclo[2.2.1]heptan-5-yl]oxy]-4-pyridyl]pyrazolo[1,5-a]pyridin-2-yl]cyclopropanecarboxamide] |
| 0.0027 | 39.9 | N#Cc1cc(-c2ccn3nc(NC(=O)C4CC4)cc3c2)c(O[C@@H]2CCNCC2(F)F)cn1 [Example 15, N-[5-[2-cyano-5-[[(4R)-3,3-difluoro-4-piperidyl]oxy]-4-pyridyl]pyrazolo[1,5-a]pyridin-2-yl]cyclopropanecarboxamide] |
| 0.00496 | 236 | CN1CC[C@H](COc2cnc(C#N)cc2-c2ccn3nc(NC(=O)C4CC4)cc3c2)C1 [Example 16, (S)—N-(5-(2-cyano-5-((1-methylpyrrolidin-3-yl)methoxy)pyridin-4-yl)pyrazolo[1,5-a]pyridin-2-yl)cyclopropanecarboxamide] |
| 0.000783 | 8.38 | N#Cc1cc(-c2ccn3nc(NC(=O)C4CC4)cc3c2)c(OC[C@@H]2CNCCO2)cn1 [Example 19, N-[5-[2-cyano-5-[[(2S)-morpholin-2-yl]methoxy]-4-pyridyl]pyrazolo[1,5-a]pyridin-2-yl]cyclopropanecarboxamide] |
| 0.00122 | 10.2 | N#Cc1cc(-c2ccn3nc(NC(=O)C4CC4)cc3c2)c(OC[C@@H]2CC[C@H](N)C2)cn1 [Example 20, N-[5-[5-[[(1R,3S)-3-aminocyclopentyl]methoxy]-2-cyano-4-pyridyl]pyrazolo[1,5-a]pyridin-2-yl]cyclopropanecarboxamide] |
| 0.0021 | 16.3 | N#Cc1cc(-c2ccn3nc(NC(=O)C4CC4)cc3c2)c(OCC2CNC2)cn1 [Example 23, N-[5-[5-(azetidin-3-ylmethoxy)-2-cyano-4-pyridyl]pyrazolo[1,5-a]pyridin-2-yl]cyclopropanecarboxamide] |
| 0.00594 | 145 | N#Cc1cc(-c2ccn3nc(NC(=O)C4CC4)cc3c2)c(O[C@@H]2C[C@H]3C[C@@H]2CN3)cn1 [Example 24, N-[5-[5-[[(1R,4R,5R)-2-azabicyclo[2.2.1]heptan-5-yl]oxy]-2-cyano-4-pyridyl]pyrazolo[1,5-a]pyridin-2-yl]cyclopropanecarboxamide] |
| 0.00474 | 98.7 | CN1[C@@H]2CC[C@H]1C[C@H](COc1cnc(C#N)cc1-c1ccn3nc(NC(=O)C4CC4)cc3c1)C2 [Example 27, N-[5-[2-cyano-5-[[(1S,5R)-8-methyl-8-azabicyclo[3.2.1]octan-3-yl]methoxy]-4-pyridyl]pyrazolo[1,5-a]pyridin-2-yl]cyclopropanecarboxamide] |
| 0.00705 | 111 | N#Cc1cc(-c2ccn3nc(NC(=O)C4CC4)cc3c2)c(OC2CNC2)cn1 [Example 31, N-[5-[5-(azetidin-3-yloxy)-2-cyano-4-pyridyl]pyrazolo[1,5-a]pyridin-2-yl]cyclopropanecarboxamide] |
| 0.0034 | 81.3 | CN1CC(COc2cnc(C#N)cc2-c2ccn3nc(NC(=O)C4CC4)cc3c2)C1 [Example 32, N-[5-[2-cyano-5-[(1-methylazetidin-3-yl)methoxy]-4-pyridyl]pyrazolo[1,5-a]pyridin-2-yl]cyclopropanecarboxamide] |
| 0.00321 | 20.1 | CN1CCO[C@@H](COc2cnc(C#N)cc2-c2ccn3nc(NC(=O)C4CC4)cc3c2)C1 [Example 36, (R)—N-(5-(2-cyano-5-((4-methylmorpholin-2-yl)methoxy)pyridin-4-yl)pyrazolo[1,5-a]pyridin-2-yl)cyclopropanecarboxamide] |
| 0.00725 | 111 | CN1CCC[C@@H](COc2cnc(C#N)cc2-c2ccn3nc(NC(=O)C4CC4)cc3c2)C1 [Example 37, (R)—N-(5-(2-cyano-5-((1-methylpiperidin-3-yl)methoxy)pyridin-4-yl)pyrazolo[1,5-a]pyridin-2-yl)cyclopropanecarboxamide] |
| 0.014 | 305 | CN1CCC[C@H](COc2cnc(C#N)cc2-c2ccn3nc(NC(=O)C4CC4)cc3c2)C1 [Example 38, (S)—N-(5-(2-cyano-5-((1-methylpiperidin-3-yl)methoxy)pyridin-4-yl)pyrazolo[1,5-a]pyridin-2-yl)cyclopropanecarboxamide] |
| 0.00152 | 36 | CN1CCO[C@H](COc2cnc(C#N)cc2-c2ccn3nc(NC(=O)C4CC4)cc3c2)C1 [Example 39, N-[5-[2-cyano-5-[[(2S)-4-methylmorpholin-2-yl]methoxy]-4-pyridyl]pyrazolo[1,5-a]pyridin-2-yl]cyclopropanecarboxamide] |
| 0.0047 | 87.6 | N#Cc1cc(-c2ccn3nc(NC(=O)C4CC4)cc3c2)c(OCC23CCC(CC2)C(=O)N3)cn1 [Example 40, N-[5-[2-cyano-5-[(2-oxo-3-azabicyclo[2.2.2]octan-4-yl)methoxy]-4-pyridyl]pyrazolo[1,5-a]pyridin-2-yl]cyclopropanecarboxamide] |
| 0.00243 | 58.5 | N#Cc1cc(-c2ccn3nc(NC(=O)C4CC4)cc3c2)c(OCC2(O)CCC2)cn1 [Example 41, N-[5-[2-cyano-5-[(1-hydroxycyclobutyl)methoxy]-4-pyridyl]pyrazolo[1,5-a]pyridin-2-yl]cyclopropanecarboxamide] |
| 0.00169 | 45.5 | N#Cc1cc(-c2ccn3nc(NC(=O)C4CC4)cc3c2)c(OCC2(O)CCCC2)cn1 [Example 42, N-[5-[2-cyano-5-[(1-hydroxycyclopentyl)methoxy]-4-pyridyl]pyrazolo[1,5-a]pyridin-2-yl]cyclopropanecarboxamide] |
| 0.000938 | 10.8 | N#Cc1cc(-c2ccn3nc(NC(=O)C4CC4)cc3c2)c(OCC2CCNCC2)cn1 [Example 43, N-[5-[2-cyano-5-(4-piperidylmethoxy)-4-pyridyl]pyrazolo[1,5-a]pyridin-2-yl]cyclopropanecarboxamide] |
| 0.00124 | 26 | N#Cc1cc(-c2ccn3nc(NC(=O)C4CC4)cc3c2)c(OCC2(N)CCC2)cn1 [Example 44, N-[5-[5-[(1-aminocyclobutyl)methoxy]-2-cyano-4-pyridyl]pyrazolo[1,5-a]pyridin-2-yl]cyclopropanecarboxamide] |
| 0.0141 | 185 | N#Cc1cc(-c2ccn3nc(NC(=O)C4CC4)cc3c2)c(OC2CC2)cn1 [Example 46, N-[5-[2-Cyano-5-(cyclopropoxy)-4-pyridyl]pyrazolo[1,5-a]pyridin-2-yl]cyclopropanecarboxamide] |
| 0.0135 | 154 | N#Cc1cc(-c2ccn3nc(NC(=O)C4CC4)cc3c2)c(OCc2cccnc2)cn1 [Example 47, N-[5-[2-Cyano-5-(3-pyridylmethoxy)-4-pyridyl]pyrazolo[1,5-a]pyridin-2-yl]cyclopropanecarboxamide] |
| 0.0109 | 118 | N#Cc1cc(-c2ccn3nc(NC(=O)C4CC4)cc3c2)c(OCc2ccccn2)cn1 [Example 48, N-(5-(2-Cyano-5-(pyridin-2-ylmethoxy)pyridin-4-yl)pyrazolo[1,5-a]pyridin-2-yl)cyclopropanecarboxamide] |
| 0.00509 | 116 | CN1CCC(COc2cnc(C#N)cc2-c2ccn3nc(NC(=O)C4CC4)cc3c2)CC1 [Example 51, N-[5-[2-cyano-5-[(1-methyl-4-piperidyl)methoxy]-4-pyridyl]pyrazolo[1,5-a]pyridin-2-yl]cyclopropanecarboxamide] |
| 0.00206 | 31.8 | CC(C)(O)COc1cnc(C#N)cc1-c1ccn2nc(NC(=O)C3CC3)cc2c1 [Example 52, N-[5-[2-Cyano-5-(2-hydroxy-2-methyl-propoxy)-4-pyridyl]pyrazolo[1,5-a]pyridin-2-yl]cyclopropanecarboxamide] |
